Test results from US10233207B2, “Crystalline form of nicotinamide riboside” (W. R. Grace & Co.—Conn., priority 2014, dated 2019).

How the values were obtained:
[1] = Hygroscopicity / Dynamic Vapor Sorption (DVS) moisture sorption isotherm; assay type: physicochemical
Method: Moisture sorption isotherms were collected on a DVS-1 system from Surface Measurement Systems UK Ltd. (London, UK) for both crystalline Form I of nicotinamide riboside chloride and for the amorphous form of nicotinamide riboside chloride. Sample sizes were between 9.7 and 14.3 mg of solid material. The relative humidity was started with an initial drying step going from 40% RH to 0% RH. Subsequently, the relative humidity was increased to 95% (sorption), decreased to 0% RH (desorption) and increased again to 95% RH (sorption). Weight equilibration was set per step with a holding time of 1 hour (10% relative humidity step). Individual samples sizes were 12.6568 mg for crystalline Form I and 9.6799 mg for the amorphous sample. FIG. 8A provides a DVS change in mass plot for a sample of the crystalline Form I of nicotinamide riboside chloride, and FIG. 8B provides a DVS isotherm plot for a sample of the crystalline Form I of nicotinamide riboside chloride. FIG. 9A provides a DVS change in mass plot for a sample of the amorphous form of nicotinamide riboside chloride, and FIG. 9B provides a DVS isotherm plot for a sample of the amorphous form of nicotinamide riboside chloride.
FIG. 10 provides a comparison of the sorption curve for crystalline Form I of nicotinamide riboside chloride with the sorption curve for the amorphous sample. […] Even at 70% relative humidity, the weight of the crystalline sample had not increased by more than about 1.0%. These characteristics of the crystalline Form I are advantageous for the handling of the material overall and represent the ability to remain stable over a greater range of working conditions relative to the amorphous form.

[2] = high-fat diet supplemented with nicotinamide riboside; cited from earlier work
[3] = assay type: physicochemical
Excerpt: The instant crystalline Form I of nicotinamide riboside chloride may be provided in one of several different morphologies. For example, the crystalline material may exist in a morphology having a bulk density of about 0.25 to about 0.4 g/mL, or may exist in a morphology having a bulk density of about 0.40 to about 0.65 g/mL. The present disclosure also relates to mixtures of at least these two morphologies in any proportion. FIG. 3A depicts a Scanning Electron Microscopy (SEM) image of the inventive crystalline nicotinamide riboside chloride in a morphology having a bulk density of about 0.25 to about 0.4 g/mL, and FIG. 3B depicts a Scanning Electron Microscopy (SEM) image of the inventive crystalline nicotinamide riboside chloride in a morphology having a bulk density of about 0.40 to about 0.65 g/mL. […] This morphology also appears to provide the product with a slightly higher purity as well. Because of the purity, stability, and color variations in the other morphology (the morphology having a bulk density of about 0.40 to about 0.65 g/mL), in at least some instances a preference exists for the crystalline nicotinamide chloride having a bulk density of about 0.25 to about 0.4 g/mL as it appears to produce higher quality product with more consistency.

Compound: 3-carbamoyl-1-[(2R,3R,4S5R)-3,4-dihydroxy-5-(hydroxymethypoxolan-2-yl]-pyrin-1-ylium chloride
- rate of water absorption compared with amorphous material ([1]; 0% to 60% relative humidity, sorption curve FIG. 10): much less prone to absorption at lower relative humidities than the amorphous material
- weight increase of sample (water sorption) ([1]; 70% relative humidity): ≤ 1.0%
- water uptake (water vapor sorption isotherm) ([1]; relative humidity of up to 60%): not more than 0.5 wt %
- water uptake (water vapor sorption isotherm) ([1]; relative humidity of up to 70%): not more than 1.0 wt %

Compound: NC(=O)c1ccc[n+]([C@@H]2O[C@H](CO)[C@@H](O)[C@H]2O)c1 [nicotinamide riboside, Nicotinamide riboside]
- less weight gained than mice on same high-fat diet without nicotinamide riboside [2]: 60%

Compound: NC(=O)c1ccc[n+]([C@@H]2O[C@H](CO)[C@@H](O)[C@H]2O)c1.[Cl-]
- stability to degradation via oxygen or water absorption, compared with morphology of bulk density about 0.40 to about 0.65 g/mL [3]: more stable to degradation via oxygen or water absorption
